The source of these data is patent publication US20180318199A1, “Pharmaceutical Composition Having Anti-Aging Properties against High-Glucose” (TAIWAN LEADER BIOTECH CORP., priority 2017, published 2018).

One experiment concerns SIRT-1, SIRT-3, SIRT-6. The experiment in a line: Western blot of SIRT proteins and phos-SIRT-1 in HNDFs. The format is cell-based, human. To be noted: 72 h. The procedure: Total cell lysate is extracted and subjected to western blot analysis to monitor SIRT-1, SIRT-3, SIRT-6 protein levels.
(§1) The protein expression levels of SIRT-1, SIRT-6, p21^CIP1, SMP30, p53, FoxO and acetylation of p53 and FoxO1 are determined by western blot analysis.
To further understand the regulation of SIRT-1 by ANM, the effect of ANM on SIRT-1 activation and protein stability is examined under hyperglycemic conditions. In FIG. 7I, cells are incubated with JNK/SAPK or p38 MAPK inhibitors SP600125 (SP, 30 μM) and SB203580 (SB, 30 μM) in the presence of HG for 72 h. The protein expression levels of phos-SIRT-1 and SIRT-1 are determined by western blotting. Results are expressed as mean±S.E.M of three independent experiments. Statistical significance is set at ^ϕP<0.05 as compared to NG vs. HG and *P<0.05 as compared to HG vs. samples. Previous studies have shown that hyperphosphorylation of SIRT-1 at serine 47 (Ser47) is correlated with enhanced endothelial senescence. In addition, persistent activation of JNK1/2 by multiple factors including hyperglycemia induces extensive SIRT-1 proteasome degradation followed by phosphorylation at Ser47. […] Therefore, it is hypothesized that ANM-mediated suppression of JNK1/2 and p38 MAPK activation may have a functional role in the stability of SIRT-1 protein.
(§2) Cells are lysed by either RIPA lysis buffer or nuclear and cytoplasmic extraction reagents (Thermo Fisher Scientific). Protein concentrations are determined by Bio-Rad protein assay reagent (Bio-Rad Laboratories, Hercules, Calif.). Equal amounts of protein samples (60 μg) are separated by 7-12% SDS-PAGE and the separated proteins are transferred onto polyvinylidene […] (PVDC) membrane overnight. The transferred protein membranes are blocked with 5% non-fat dried milk for 30 min, followed by incubation with specific primary antibodies overnight, and either horseradish peroxidase-conjugated goat anti-rabbit or anti-mouse antibodies for 2 h. The blots are detected using VL Chemi-Smart 3000 (Viogene Biotek, Sunnyvale, Calif.) with the enhanced chemiluminescence (ECL) western blotting reagent (Millipore, Billerica, Mass.).
In general terms: In western blotting, separated proteins are transferred to a membrane and probed.

The next experiment relates to HNDFs. Briefly: SA-β-gal senescence assay in HG-induced HNDFs. The experiment is classed as cell-based, human. As to the method: Next, the protective effects of antcins on HG-induced HNDF senescence are examined. In FIG. 2B, cells were incubated with ANA (10 μM), ANH (10 μM) and ANM (10 μM) in the presence of HG (30 mM) for 72 h. Cellular senescence is determined by SA-β-gal activity. […] After cells are co-incubated with HG and antcins (ANA, ANH and ANM) for 72 h, senescence is measured by SA-β-gal assay.
Therefore, in order to examine whether the ROS inhibitory effect may be extended to suppress HG-induced senescence, HG-induced senescenece eliminated by ANM is examined. In FIG. 4B, HNDFs are incubated with ANM (10 μM) or NAC (100 μM) in the presence or absence of HG (30 mM) for 72 h. Cellular senescence is determined by SA-β-gal assay. […] As is shown, cells are co-incubated with HG and ANM or NAC for 72 h.
Senescence-associated β-galactosidase (SA-β-gal) activity is determined in formaldehyde-fixed histochemical staining kit according to the manufacturer's instructions (Cell Signaling Technology, Danvers, Calif.). Briefly, cells are grown in 6-well plates at a density of 5×10^4 cells/well, and incubated with HG or test samples for 48 h (HUVECs) or 72 h (HNDFs). After incubation, cells are stained with SA-β-gal staining solution at pH 6.0 overnight and then the development of blue staining is observed and photographed under a bright-field microscope (Motic Electric Group, Xiamen, P.R. China).

In a further experiment the test system is HO-1 and NQO-1. The experiment in a line: Western blot of HO-1 and NQO-1 in HUVECs. The experiment is classed as cell-based, human. To be noted: ANM 10 μM or RES 5 μM + HG. The procedure:
The intracellular ROS level is quantified by utilizing DCFH-DA assay. […] However, treatment of HUVECs with ANM resulted reduced ROS levels (6.1-fold), compared with HUVECs in HG that are not treated with ANM. In addition, in FIG. 9G, western blot analysis is performed to determine the protein expression levels of HO-1 and NQO-1.
as §2

Experiment [1] has as its system SIRT-1, SIRT-3 and SIRT-6. The experiment in a line: RT-PCR/Q-PCR of SIRT genes in HNDFs. The experiment is classed as cell-based, human. To be noted: RES, 72 h, no HG. From the text:
As shown in the figures, to determine whether ANM regulates HNDF senescence through a SIRT-1-mediated pathway, expression levels of SIRT genes SIRT-1, SIRT-3 and SIRT-6 are is examined.
Total RNA is extracted and subjected to Q-PCR analysis to monitor SIRT-1, SIRT-3 and SIRT-6 expression. Relative mRNA levels are normalized by β-actin mRNA. Previous studies have shown that exposure of endothelial cells to HG rapidly decreases levels of expression of SIRT genes.
Total RNA is extracted from cultured HNDFs using Trizol Reagent (Thermo Fisher Scientific). Q-PCR analysis is performed using Applied Biosystems detection instruments and software. Forward and reverse primers (10 μM), and the working solution SYBR green, is used as a PCR master mix, under the following conditions: 96° C. for 3 minutes followed by 40 cycles at 96° C. for 1 minute, 50° C. for 30 seconds and 72° C. for 90 seconds. GAPDH is used as an internal standard to control for variability in amplification because of differences in starting mRNA concentrations. The copy number of each transcript is calculated as the relative copy number normalized by GAPDH copy number.

A further experiment deals with wild-type C. elegans. The experiment in a line: C. elegans lifespan assay. The format is in vivo, Caenorhabditis elegans. To be noted: ANM 10 μM or RES 438 μM vs control. As to the method:
It has been well documented that high glucose levels decrease the life span of C. elegans by increasing ROS formation and advance glycation end-product modification of mitochondrial proteins. Therefore, it is further investigated whether ANM has a protective effect against hyperglycemia-induced oxidative stress as well as anti-aging effects. Worms are incubated with high glucose (50 mM) with or without ANM […], and controlled for life span evaluation. In FIG. 8B, effect of ANM on the life span of C. elegans under hyperglycemic condition is examined. Age synchronized L1 larvae are transfected to NGM plates which contain HG (50 mM) with or without ANM (10 μM) and worms are developed to adulthood. The survival rate is scored everyday and is expressed as a percentage of survival. […] Results are expressed as mean±S.E.M of three independent experiments. Statistical significance is set at ^ϕP<0.05 as compared to control vs. HG, *P<0.05 as compared to HG vs. HG+sample and ̂P<0.05 as compared to control vs. samples.
Control worms are treated with 0.01% DMSO. All worms are kept 20° C. to develop adulthood. After 6 days, worms are transferred to plates containing glucose are applicable. Surviving and dead animals are counted daily (starting from the first day of adulthood) until all worms had died. […] Worms suffering from internal hatch (a defect in egg-laying) and those that crawled off the NGM plate are not included in the life-span assay. During the reproductive period, adult worms are transferred to fresh NGM plates every day during the progeny production period and then every other day thereafter. Life span assay result is obtained from three independent assays.

The subject of a further experiment is Nrf2. Briefly: ARE luciferase reporter assay (Nrf2 transcriptional activity) in HNDFs. The format is cell-based, human. To be noted: inhibitor 30 μM 2 h, then ANM 10 μM + HG 30 mM 6 h. As to the method:
Therefore, to determine whether ANM augments Nrf2 transcriptional activity, ARE-harboring luciferase reporter assay is used. In FIG. 5E, to determine the Nrf2 transcriptional activity, HNDFs are transiently transfected with ARE promoter construct using lipofectamine and incubated with ANM (10 μM) or NAC (100 μM) in the presence or absence of HG (30 mM) for 6 h. Cell lysates are mixed with luciferase reagents and quantified using an illuminometer. Relative ARE promoter activity is calculated by dividing the relative luciferace unit (RLU) of treated cells by RLU of untreated cells (NG).
Activation of P13K/AKT and mitogen-activated protein kinases (MAPKs), including ERK1/2, JNK/SAPK and p38 MAPK, facilitates Nrf2 transcriptional activation in a variety of human cell lines. […] To elucidate the upstream signaling events involved in ANM-induced Nrf2 transcriptional activity, cells are pre-incubated with pharmacological inhibitors of P13K/AKT (LY294002), ERK1/2 (PD98059), SAPK/JNK (SP600125) and p38MAPK (SB203580) for 2 h and treated with ANM for 6 h in the presence of HG. In FIG. 5G, HNDFs are pre-incubated with AKT, ERK1/2, JNK/SAPK and p38 MAPK inhibitors, including LY294002 (LY, 30 μM), PD98059 (PD, 30 μM), SP600125 (SP, 30 μM) and SB203580 (SB, 30 μM), respectively, for 2 h and then incubated with ANM (10 μM) in the presence of HG (30 mM) for 6 h. Cytoplasmic and nuclear fractions are prepared and subjected to western blot analysis. GAPDH and histone H3 are served as internal controls for the cytoplasmic and nuclear fraction, respectively.
ARE promoter activity is measured using a dual-luciferase reporter assay system (Promega, Madison, Wis.). […] Cells are then transfected with ARE plasmid (Qiagen, Hilden, Germany) using Lipofectamine 2000 (Invitrogen) and incubated for 36 h. […] The cell lysate is prepared and incubated with luciferase agents and the relative luminescence intensity is quantified using a spectrophotometer (Hidex Oy, Turku, Finland).
(Reporter assays use an easily measured gene product as a stand-in for the process of interest.)

A further experiment has as its system p53 and FoxO1. The experiment in a line: Western blot of p53 and FoxO1 acetylation/phosphorylation in HNDFs. To be noted: pharmacological inhibitor in the presence of HG (FIG. 4G). The format is cell-based, human. The procedure:
It is well known that p16^INK4A and p21^CIP1 are regulated by transcription factors p53 and FoxO1 followed by acetylation. […] In addition, p53 phosphorylation at Ser15 by their upstream kinases promotes transcriptional activation in response to DNA damage.
To further examine the phenomenon that HG-induced p53 activation is relayed by the p38 MAPK or JNK/SAPK cascade, cells are incubated with corresponding pharmacological inhibitors, SB203580, SP600125, PD98059 and LY294002 for p38MAPK, JNK/SAPK, ERK1/2 and P13K/AKT, respectively in the presence of HG.
as §1, §2

For `Oc1ccc(C=Cc2cc(O)cc(O)c2)cc1` [RES, resveratrol, reference compound], the “HG-induced SIRT-1 phosphorylation at Ser47” value in the experiment with SIRT-1, SIRT-3, SIRT-6 (ANM or RES + HG) is “significantly attenuates”. In addition, the “SA-β-gal activity, SIRT-1 siRNA transfected cells” value in the experiment on HNDFs (ANM 10 μM or RES + HG, 72 h) is “remains partially elevated”. Also, the “HO-1 expression in HUVECs in HG” value in the experiment on HO-1 and NQO-1 was “significantly increase”. The “SIRT-6 level (RT-PCR)” value in experiment [1] is “remarkable increase”. Further, in the experiment on wild-type C. elegans, the “life span of C. elegans under normal condition” value is recorded as “highly comparable”.
On to `C[S+]([O-])c1ccc(-c2nc(-c3ccncc3)c(-c3ccc(F)cc3)[nH]2)cc1` (stereo not drawn) [SB203580, reference compound], for which the “SIRT-1 phosphorylation and reduction in SIRT-1, kinase inhibitors” value with SIRT-1, SIRT-3, SIRT-6 (inhibitor 30 μM + HG) is “inhibits”. The “ANM-induced ARE luciferase activity after inhibitor pretreatment” value in the experiment on Nrf2 was “partially or barely inhibits”. For the same compound, the “HG-induced SA-β-gal activity, kinase inhibitors” value with HNDFs (inhibitor 30 μM + HG 30 mM, 72 h (FIG. 4H)) was “barely observed”. For the same compound, in the experiment on p53 and FoxO1, the “HG-induced p16^INK4A expression and p53 phosphorylation, kinase inhibitors” value is “reduced”.
